Source: article PMC9905117, “Characterization of the metabolism of eupalinolide A and B by carboxylesterase and cytochrome P450 in human liver microsomes” (Frontiers in Pharmacology, 2023)

Tested on: Carboxylesterase
Test: Inhibition of EA or EB hydrolysis in HLMs by carboxylesterase inhibitor BNPP
Type: biochemical, human
Settings: HLMs 0.5 g/L, no NADPH, 30 min
Description: To determine ideal BNPP concentration for inhibiting carboxylesterase activity in HLMs, an incubation system consisting of 100 mM phosphate buffer solution at pH 7.4, HLMs (0.5 g/L), MgCl2 (5 mM) and BNPP (0.5, 1, 1.5 and 2 mM) was prepared ([Zhuang et al., 2014]; [Wang Y. Q. et al., 2020]; [Zhang et al., 2022d]; [Jin et al., 2022]). The mixture was preincubated at 37°C for 5 min and the metabolic reaction was initiated by addition of EA or EB (at a final concentration of 10 μM). Positive control groups lacked BNPP while negative control groups contained deactivated HLMs. […] The above reaction was terminated by adding 200 µl of ice-cold stop solution at 30 min. Sample preparation and evaluation were as described in 2.2.1. All incubations were performed in triplicate. The percentage of EA or EB hydrolysis inhibition was calculated using the following Eq. 1: Inhibition%=1−∆substrate in the presence of chemical inhibitor/∆substrate in the absence of chemical inhibitor×100% (1)

O=[N+]([O-])c1ccc(OP(=O)(O)Oc2ccc([N+](=O)[O-])cc2)cc1 [BNPP, bis(4-nitrophenyl) phosphoricacid]
inhibitory percentage of EA hydrolysis (BNPP 0.5 mM, EA 10 μM): 87.38%
inhibitory rate of EB hydrolysis (BNPP 2 mM, EB 10 μM): 86.11%
